Source: patent publication US6372897B1, “Mimotopic polypeptides of toxoplasma gondii and applications” (priority 1995, dated 2002)
Ends that are not written are not given here.

How the values were obtained:
[1] = test system: anti-P30 monoclonal antibody 1E1E7; assay: Spotscan overlapping pentadecapeptides on cellulose membrane, immunoreactivity with 1E1E7; assay type: binding, mouse; conditions: 1E1E7 60 nM
Description: According to the “Spotscan” technique, the synthesis of the peptides is carried out on cellulose membranes (Cambridge Research Biochemicals). The principle of the method is the same as that for Pepscan. The esterified amino acids are solubilized in N-methylpyrrolidone (NMP) at the concentration of […] and 0.9 μl are deposited at the level of spots for the deposition of bromophenol blue. After a 15 minute incubation, another deposition of amino acids is carried out followed by another 15 minute incubation. If the coupling between the two amino acids is carried out correctly, a change in color is observed (passage from blue to yellowish green). After three washes in DMF, an acetylation step is carried out with acetic anhydride. Then the terminal amino groups of the peptides being synthesized are deprotected with 20% piperidine in DMF. The deposition spots are restained with a 1% bromophenol blue solution in DMF, washed three times with methanol and dried. These operations as a whole constitute a cycle for addition of an amino acid and this cycle is repeated up to the end of the synthesis. When all the amino acids have been added, the NH2-terminal group of the last amino acid is deprotected with 20% piperidine in DMF and is acetylated with acetic anhydride. The side chain protecting groups are removed by a dichloromethane:trifluoroacetic acid:triisobutylsilane mixture (5 ml:5 ml:250 μl). The immunoreactivity of the peptides thus synthesized can then be tested by ELISA.
In order to reproduce the entire pentadecapeptide included in the phage clone isolated and to determine the possible role of the contiguous amino acids belonging to the sequence of the PIII protein of the phage (see Example 1), the chemical synthesis of overlapping pentadecapeptides, which cover the sequence […](SEQ ID No.59), was carried out on an activated cellulose membrane (“Spotscan”).
After synthesis of the various pentadecapeptides, the membrane is rinsed with methanol, washed in TBS (0.1M Tris, pH 7.2) and then incubated overnight at room temperature in saturation buffer (marketed by Cambridge Research Biochemicals). After several washes with TBS-T (0.1M Tris, pH 7.2-0.05% Tween 20), the membrane is brought into contact with a solution of anti-P30 monoclonal antibody 1E1E7 (60 nM) and incubated for 4 hours at room temperature. After three washes with TBS-T, the anti-mouse immunoglobulin conjugate labeled with galactosidase (marketed by Cambridge Research Biochemicals) is added at a 1/200 dilution and the whole is incubated for two hours at room temperature. After several washes of the membrane with PBS-Tween 0.05% and PBS, the immunoreactivity at the level of the various spots is visualized by adding a solution of substrate (5-bromo-4-chloro-3-indoyl-D-galactopyranoside in PBS containing magnesium chloride and potassium ferricyanide) and incubating for 10 to 40 minutes. The color of the spots is assessed qualitatively.

[2] = target: phage clone displaying the pentadecapeptide Trp-His-Trp-Arg-His-Arg-Ile-Pro-Leu-Gln-Leu-Ala-Ala-Gly-Arg (SEQ ID No.48) fused in the PIII protein (filamentous phage); assay: phage ELISA, phages captured by anti-M13 antibodies, 1E1E7 at 3 nM
[3] = target: T1, phage clone identified (SEQ ID No.48) (Enterobacteria phage fd, UniProt P03661); assay: ELISA: inhibition by human serum of the attachment of monoclonal antibody 1E1E7 to the phage clone; assay type: binding; conditions: phages containing the sequence
T1 construct: made in house; host or cells: E. coli (K19Kan), phage amplification
Description: The ELISA test was carried out as described in Example 2 with the following modifications: 100 μl of various dilutions of human serum of a patient infected with Toxoplasma gondii (positive serum—reference G8) are brought into contact with the. phage clone identified, immobilized as described in Example 2, for 30 minutes at 37° C. After two washes with TBS/Tween 0.05%, 100 μl of monoclonal antibody 1E1E7 at the concentration of 6 nM are added and incubated overnight at 4° C. After four washes with TBS/Tween, 100 μl of anti-mouse conjugate labeled with peroxidase are added and then incubated for one hour at 37° C. The enzymatic reaction for visualization was carried out by adding 100 μl of an H2O2/orthophenylenediamine (OPD) solution and incubating the sample for 30 minutes at room temperature. The staining reaction is stopped by adding 50 μl of 1.8N sulfuric acid. The optical density is measured on a BioMé rieux plate reader at 492 nm. Moreover, a control was produced, under the same reaction conditions but with a human serum not infected with Toxoplasma gondii (negative serum), in order to ensure that the phage clone identified reacts specifically with the human serum of a patient infected with Toxoplasma gondii.

[4] = test system: anti-P30 monoclonal antibody 1E1E7; assay: Competition ELISA: inhibition by native P30 protein of the ELISA response of the phage clone; assay type: binding, mouse; conditions: phage clone SEQ ID No.48
Description: A competition ELISA test was carried out in order to determine if the response obtained with the phage clone identified is inhibited by pre-incubation of the anti-P30 monoclonal antibody 1E1E7 with the P30 protein.
The ELISA test is carried out as described in Example 2 with the following modifications: the monoclonal antibody 1E1E7 (at the concentration of 6 nM) is preincubated with various concentrations of P30 protein for 20 minutes at 37° C. and then the mixture is added to the wells of the ELISA plate in which the phages corresponding to the pentadecapeptide Trp-His-Trp-Arg-His-Arg-Ile-Pro-Leu-Gln-Leu-Ala-Ala-Gly-Arg (SEQ ID No.48) are attached.

HRIPLQLAAGRGAAG [SEQ ID No.9]
Color of the spots (immunoreactivity), assessed qualitatively [1]: maximum

PLQLAAGRGAAGAET [SEQ ID No.34]
Color of the spots (immunoreactivity), assessed qualitatively [1]: disappears completely

IPLQLAAGRGAAGAE [SEQ ID No.33]
Color of the spots (immunoreactivity), assessed qualitatively [1]: very slight color

anti-P30 monoclonal antibody 1E1E7 (BioMerieux)
OD (492 nm) [2]: 0.269 to 0.274 OD 492 nm

SADGAWHWRHRIPLQ [SEQ ID No.231]
Color of the spots (immunoreactivity), assessed qualitatively [1]: a first color

RIPLQLAAGRGAAGA [SEQ ID No.32]
Color of the spots (immunoreactivity), assessed qualitatively [1]: maximum

WHWRHRIPLQLAAGR [SEQ ID No.48]
Recognition by the antibodies present in the sera of patients infected with Toxoplasma gondii [3]: indeed recognized

B1: P30 protein: the Toxoplasma gondii major antigen, peptide sequence identified by SEQ ID No.1 (protein)
chain: MSVSLHHFIISSGFLTSMFPKAVRRAVTAGVFAAPTLMSFLRCGVMASDPPLVANQVVTCPDKKSTAAVILTPTENHFTLKCPKTALTEPPTLAYSPNRQICPAGTTSSCTSKAVTLSSLIPEAEDSWWTGDSASLDTAGIKLTVPIEKFPVTTQTFVVGCIKGDDAQSCMVTVTVQARASSVVNNVARCSYGADSTLGPVKLSAEGPTTMTLVCGKDGVKVPQDNNQYCSGTTLTGCNEKSFKDILPKLTENPWQGNASSDKGATLTINKEAFPAESKSVIIGCTGGSPEKHHCTVKLEFAGAAGSAKSSAGTASHVSIFAMVTGLIGSIAACVA
Inhibition of the ELISA response ([4]; P30 protein 35 ng/ml preincubated with 6 nM 1E1E7): 45% | Inhibition of the ELISA response ([4]; P30 protein 3.5 μg/ml preincubated with 6 nM 1E1E7): 80%
